Read-outs that look alike come from different tables or passages of the source.
Assays:
DCLK1 = target: T1, DCLK1 (Homo sapiens, UniProt O15075); assay: In vitro DCLK1 kinase activity assay (Eurofins); assay type: biochemical; settings: for Selectivity (IC50 of DCLK1/IC50 of LRRK2): ratio of IC50 values; for Selectivity (DCLK1 activity/LRRK2 activity): ratio of remaining activities at 1 uM; for activity at 1 µM: read-out: DCLK1 activity (%)
T1 construct: purchased Eurofins (Belgium), contract assay service
T1 sequence (O15075 1-740): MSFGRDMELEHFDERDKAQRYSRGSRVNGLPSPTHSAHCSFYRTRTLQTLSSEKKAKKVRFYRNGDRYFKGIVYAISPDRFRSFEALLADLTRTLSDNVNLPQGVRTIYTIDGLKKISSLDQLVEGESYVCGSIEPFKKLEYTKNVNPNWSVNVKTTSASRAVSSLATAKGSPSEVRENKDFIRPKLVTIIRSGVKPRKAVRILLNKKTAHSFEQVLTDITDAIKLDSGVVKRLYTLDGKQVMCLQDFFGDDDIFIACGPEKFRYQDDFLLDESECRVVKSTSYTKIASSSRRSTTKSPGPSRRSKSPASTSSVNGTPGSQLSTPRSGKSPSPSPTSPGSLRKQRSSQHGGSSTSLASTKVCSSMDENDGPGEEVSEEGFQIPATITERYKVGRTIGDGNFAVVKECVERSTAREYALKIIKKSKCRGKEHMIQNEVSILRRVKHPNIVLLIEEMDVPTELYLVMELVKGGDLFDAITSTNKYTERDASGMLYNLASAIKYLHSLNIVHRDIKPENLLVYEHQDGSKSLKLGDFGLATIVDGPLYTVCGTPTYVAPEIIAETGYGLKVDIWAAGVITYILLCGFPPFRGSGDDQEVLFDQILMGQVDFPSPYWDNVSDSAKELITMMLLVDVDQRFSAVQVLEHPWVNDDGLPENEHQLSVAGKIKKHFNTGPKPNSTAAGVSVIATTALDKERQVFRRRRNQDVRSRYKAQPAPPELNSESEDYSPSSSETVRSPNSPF
Description: (§1) Eurofins (Belgium) conducted in vitro DCLK1 and LRRK2 kinase activity assays. Compounds were sent as dry powders to Eurofins.

HCT116 = assay: In vitro cytotoxicity / anti-proliferation assay (CCK8); assay type: cell-based; settings: Homo sapiens, HCT-116, colorectal cancer cell line HCT116, 72 h
Description: To determine whether DCLK1 was required for tumour cell proliferation, the cytotoxicity of compounds was evaluated in colorectal cancer cell line HCT116. HCT116 was treated with compounds for 72 h, and the cell viability was determined using CCK8 assay (Figure 4). The antiproliferative effects of most compounds on HCT116 were correlated with their DCLK1 inhibitory activities, except for compounds D1 and D2. The poor cytotoxicity of compounds D1 and D2 may be attributed to their poor cell membrane permeability due to the negatively charged carboxylates. […] Overall, targeting DCLK1 inhibited the proliferation of HCT116, indicating the importance of DCLK1 in tumour growth.
A 96-well plate (3599, Corning, USA) was inoculated with 100 μL of complete medium containing 10 000 cells, and the experimental, control, and blank groups were established. Three parallel wells were used per concentration. After 10 h, media from the experimental and control groups were replaced with a complete medium containing the indicated concentration of the compound. Cells were incubated for 72 h before 10 μL of CCK8 reagent (CA1210, Solarbio, China) was added to each well and incubated for 1 h. The absorbance at 450 nm was measured with a microplate reader (Tecan, Switzerland). The IC50 was determined using GraphPad Prism 8 and nonlinear regression curve fitting.

LRRK2 = target: T2, LRRK2 (Homo sapiens, UniProt Q5S007); assay: In vitro LRRK2 kinase activity assay (Eurofins); assay type: biochemical; settings: for activity at 1 µM: remaining kinase activity at 1 uM compound, 100% = no inhibition, 0% = complete inhibition
T2 construct: purchased Eurofins (Belgium), contract assay service
T2 sequence (Q5S007 whole entry): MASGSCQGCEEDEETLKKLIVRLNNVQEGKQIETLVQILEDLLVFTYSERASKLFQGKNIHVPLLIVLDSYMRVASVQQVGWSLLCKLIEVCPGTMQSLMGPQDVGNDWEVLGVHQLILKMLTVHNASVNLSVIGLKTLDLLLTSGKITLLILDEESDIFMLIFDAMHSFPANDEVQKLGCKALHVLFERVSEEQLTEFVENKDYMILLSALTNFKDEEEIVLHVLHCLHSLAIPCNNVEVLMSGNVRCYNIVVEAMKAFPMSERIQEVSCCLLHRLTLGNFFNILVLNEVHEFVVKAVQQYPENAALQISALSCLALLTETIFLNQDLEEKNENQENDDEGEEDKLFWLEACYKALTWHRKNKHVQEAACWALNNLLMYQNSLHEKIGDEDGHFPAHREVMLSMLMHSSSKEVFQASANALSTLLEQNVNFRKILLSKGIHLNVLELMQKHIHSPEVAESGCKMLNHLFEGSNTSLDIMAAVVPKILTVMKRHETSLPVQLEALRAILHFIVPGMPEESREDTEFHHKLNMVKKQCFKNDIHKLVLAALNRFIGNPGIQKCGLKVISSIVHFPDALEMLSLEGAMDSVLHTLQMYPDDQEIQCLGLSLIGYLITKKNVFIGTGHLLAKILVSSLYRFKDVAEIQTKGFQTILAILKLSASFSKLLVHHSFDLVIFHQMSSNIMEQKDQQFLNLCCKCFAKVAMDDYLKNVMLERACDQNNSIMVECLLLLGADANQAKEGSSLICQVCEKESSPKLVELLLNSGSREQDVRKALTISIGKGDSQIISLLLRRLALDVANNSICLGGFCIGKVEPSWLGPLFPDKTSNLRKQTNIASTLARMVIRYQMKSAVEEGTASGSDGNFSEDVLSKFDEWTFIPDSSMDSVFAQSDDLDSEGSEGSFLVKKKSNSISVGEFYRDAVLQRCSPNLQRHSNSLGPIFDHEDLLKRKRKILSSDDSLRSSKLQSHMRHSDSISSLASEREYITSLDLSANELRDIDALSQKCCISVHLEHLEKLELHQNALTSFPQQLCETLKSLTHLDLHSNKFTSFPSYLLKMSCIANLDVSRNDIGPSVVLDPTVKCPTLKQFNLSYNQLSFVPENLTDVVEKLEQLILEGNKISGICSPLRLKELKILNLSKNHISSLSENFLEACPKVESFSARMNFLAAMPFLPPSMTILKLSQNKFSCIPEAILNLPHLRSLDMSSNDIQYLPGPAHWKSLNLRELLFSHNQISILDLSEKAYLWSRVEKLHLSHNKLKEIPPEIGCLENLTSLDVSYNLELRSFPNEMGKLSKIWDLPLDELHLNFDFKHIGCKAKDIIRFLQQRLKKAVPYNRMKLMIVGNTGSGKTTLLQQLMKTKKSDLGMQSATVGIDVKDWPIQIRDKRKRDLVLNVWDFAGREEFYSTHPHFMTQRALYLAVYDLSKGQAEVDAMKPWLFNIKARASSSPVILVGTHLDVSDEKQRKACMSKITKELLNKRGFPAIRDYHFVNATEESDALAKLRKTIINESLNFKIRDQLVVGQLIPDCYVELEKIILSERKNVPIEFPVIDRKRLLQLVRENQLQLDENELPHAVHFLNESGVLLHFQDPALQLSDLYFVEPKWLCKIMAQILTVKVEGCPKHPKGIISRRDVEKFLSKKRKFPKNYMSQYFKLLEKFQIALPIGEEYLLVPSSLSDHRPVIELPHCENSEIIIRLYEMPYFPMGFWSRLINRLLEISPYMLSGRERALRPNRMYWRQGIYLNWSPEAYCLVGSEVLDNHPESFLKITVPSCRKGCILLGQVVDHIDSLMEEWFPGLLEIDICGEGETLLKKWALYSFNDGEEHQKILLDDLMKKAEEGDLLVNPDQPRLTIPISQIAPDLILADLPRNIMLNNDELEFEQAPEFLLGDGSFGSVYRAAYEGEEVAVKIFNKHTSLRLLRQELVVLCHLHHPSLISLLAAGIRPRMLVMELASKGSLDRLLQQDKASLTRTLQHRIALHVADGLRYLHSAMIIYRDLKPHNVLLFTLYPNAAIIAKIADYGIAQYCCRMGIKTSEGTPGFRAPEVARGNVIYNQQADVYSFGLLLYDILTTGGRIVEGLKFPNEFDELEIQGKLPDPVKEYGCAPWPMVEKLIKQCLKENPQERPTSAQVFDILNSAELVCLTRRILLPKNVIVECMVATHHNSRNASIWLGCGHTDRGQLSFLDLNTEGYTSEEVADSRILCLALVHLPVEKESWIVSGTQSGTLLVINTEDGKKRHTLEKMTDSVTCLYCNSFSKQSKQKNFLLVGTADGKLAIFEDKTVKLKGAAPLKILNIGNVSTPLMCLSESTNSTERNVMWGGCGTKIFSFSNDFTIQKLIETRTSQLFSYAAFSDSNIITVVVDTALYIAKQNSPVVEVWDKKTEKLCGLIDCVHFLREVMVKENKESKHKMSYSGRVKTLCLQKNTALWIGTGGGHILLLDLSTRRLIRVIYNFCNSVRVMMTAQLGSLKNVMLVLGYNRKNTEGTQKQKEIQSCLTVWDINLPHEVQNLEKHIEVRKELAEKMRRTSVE
Description: All compounds were tested for their kinase inhibitory activity at the concentration of 1 μM. […] Compounds with high activity or good selectivity were selected for further IC50 determination (Table 2).
as §1

[1] = remaining kinase activity at 1 uM compound, 100% = no inhibition, 0% = complete inhibition

Row | Selectivity (IC50 of DCLK1/IC50 of LRRK2) (DCLK1) | Selectivity (DCLK1 activity/LRRK2 activity) (DCLK1) | IC50 (DCLK1; read-out: IC50 of DCLK1) [nM] | activity at 1 µM (DCLK1; [1]) [%] | melting point [°C] | IC50 (LRRK2) [nM] | activity at 1 µM (LRRK2) [%] | Compound | IC50 (HCT116) [nM] | IC50 (DCLK1) [nM] | activity at 1 µM (DCLK1) [%]
1 | 0.38 | 0.47 | 74 | 9 | 157 to 158 | 195 | 19 | CCOc1cc(N2CCS(=O)(=O)CC2)ccc1Nc1ncc2c(n1)N(C)c1ccccc1C(=O)N2C [Compound D6, 2-((4-(1,1-Dioxidothiomorpholino)-2-ethoxyphenyl)amino)-5,11-dimethyl-5,11-dihydro-6H-benzo[e]pyrimido[5,4-b][1,4]diazepin-6-one] | 12000 |  | 
2 | <0.34 | 0.59 | 340 | 20 | 159 to 160 | > 1000 | 34 | CCOc1cc(N2CCC(C(=O)O)CC2)ccc1Nc1ncc2c(n1)N(C)c1ccccc1C(=O)N2C [Compound D3, 1-(4-((5,11-Dimethyl-6-oxo-6,11-dihydro-5H-benzo[e]pyrimido[5,4-b][1,4]diazepin-2-yl)amino)-3-ethoxyphenyl)piperidine-4-carboxylic acid] | 21500 |  | 
3 | 0.47 | 0.50 | 47 | 5 | 179 to 180 | 99 | 10 | COc1cc(N2CCC(OC)CC2)ccc1Nc1ncc2c(n1)N(C)c1ccccc1C(=O)N2C [Compound D12, 2-((2-Methoxy-4-(4-methoxypiperidin-1-yl)phenyl)amino)-5,11-dimethyl-5,11-dihydro-6H-benzo[e]pyrimido[5,4-b][1,4]diazepin-6-one] | 10100 |  | 
4 | <0.05 | 0.13 | 47 | 7 | 187 to 188 | > 1000 | 56 | COc1cc(NC(=O)CC(=O)O)ccc1Nc1ncc2c(n1)N(C)c1ccccc1C(=O)N2C [Compound D1, 3-((4-((5,11-Dimethyl-6-oxo-6,11-dihydro-5H-benzo[e]pyrimido[5,4-b][1,4]diazepin-2-yl)amino)-3-methoxyphenyl)amino)-3-oxopropanoic acid] | > 100000 |  | 
5 | <0.32 | 0.40 | 324 | 28 | 162 to 163 | > 1000 | 70 | CCOc1cc(N2CCC(O)CC2)ccc1Nc1ncc2c(n1)N(C)c1ccccc1C(=O)N2CC [Compound B3, 2-((2-Ethoxy-4-(4-hydroxypiperidin-1-yl)phenyl)amino)-5-ethyl-11-methyl-5,11-dihydro-6H-benzo[e]pyrimido[5,4-b][1,4]diazepin-6-one] | 33200 |  | 
6 | 0.58 | 0.44 | 52 | 4 | 162 to 163 | 89 | 9 | COc1cc(N2CCC(C)(O)CC2)ccc1Nc1ncc2c(n1)N(C)c1ccccc1C(=O)N2C [Compound D15, 2-((4-(4-Hydroxy-4-methylpiperidin-1-yl)-2-methoxyphenyl)amino)-5,11-dimethyl-5,11-dihydro-6H-benzo[e]pyrimido[5,4-b][1,4]diazepin-6-one] | 9880 |  | 
7 | 0.30 | 0.29 | 46 | 6 | 126 to 127 | 154 | 21 | CCOc1cc(N2CCN(C[C@@]3(O)OC[C@@H](O)[C@@H](O)[C@@H]3O)CC2)ccc1Nc1ncc2c(n1)N(C)c1ccccc1C(=O)N2C [Compound D7, 2-((2-Ethoxy-4-(4-(((2R,3S,4R,5R)-2,3,4,5-tetrahydroxytetrahydro-2H-pyran-2-yl)methyl)piperazin-1-yl)phenyl)amino)-5,11-dimethyl-5,11-dihydro-6H-benzo[e]pyrimido[5,4-b][1,4]diazepin-6-one] | 10500 |  | 
8 | 0.64 | 0.55 | 271 | 18 | 190 to 191 | 425 | 33 | CCOc1cc(N2CCSCC2)ccc1Nc1ncc2c(n1)N(C)c1ccccc1C(=O)N2C [Compound D4, 2-((2-Ethoxy-4-thiomorpholinophenyl)amino)-5,11-dimethyl-5,11-dihydro-6H-benzo[e]pyrimido[5,4-b][1,4]diazepin-6-one] | 28800 |  | 
9 | 0.46 | 0.57 | 146 | 12 | 163 to 164 | 320 | 21 | CCOc1cc(N2CC[S+]([O-])CC2)ccc1Nc1ncc2c(n1)N(C)c1ccccc1C(=O)N2C [Compound D5, 2-((2-ethoxy-4-(1-Oxidothiomorpholino)phenyl)amino)-5,11-dimethyl-5,11-dihydro-6H-benzo[e]pyrimido[5,4-b][1,4]diazepin-6-one] | 10700 |  | 
10 | <0.07 | 0.20 | 70 | 10 | 237 to 238 | > 1000 | 49 | COc1cc(NC(=O)CCC(=O)O)ccc1Nc1ncc2c(n1)N(C)c1ccccc1C(=O)N2C [Compound D2, 4-((4-((5,11-Dimethyl-6-oxo-6,11-dihydro-5H-benzo[e]pyrimido[5,4-b][1,4]diazepin-2-yl)amino)-3-methoxyphenyl)amino)-4-oxobutanoic acid] | > 100000 |  | 
11 | 0.40 | 0.44 | 53 | 7 | 171 to 172 | 132 | 16 | COc1cc(N2CCC(F)(F)CC2)ccc1Nc1ncc2c(n1)N(C)c1ccccc1C(=O)N2C [Compound D14, 2-((4-(4,4-Difluoropiperidin-1-yl)-2-methoxyphenyl)amino)-5,11-dimethyl-5,11-dihydro-6H-benzo[e]pyrimido[5,4-b][1,4]diazepin-6-one] | 15500 |  | 
12 | <0.37 | 0.37 | 365 | 19 | 166 to 167 | > 1000 | 51 | CCOc1cc(N2CCC(O)CC2)ccc1Nc1ncc2c(n1)N(C)c1ccc(F)cc1C(=O)N2C [Compound A6, 2-((2-Ethoxy-4-(4-hydroxypiperidin-1-yl)phenyl)amino)-8-fluoro-5,11-dimethyl-5,11-dihydro-6H-benzo[e]pyrimido[5,4-b][1,4]diazepin-6-one] | 24700 |  | 

Row | Compound | Selectivity (IC50 of DCLK1/IC50 of LRRK2) (DCLK1) | Selectivity (DCLK1 activity/LRRK2 activity) (DCLK1) | IC50 (DCLK1; read-out: IC50 of DCLK1) [nM] | activity at 1 µM (DCLK1; [1]) [%] | melting point [°C] | IC50 (LRRK2) [nM] | activity at 1 µM (LRRK2) [%] | IC50 (HCT116) [nM] | IC50 (DCLK1) [nM] | activity at 1 µM (DCLK1) [%]
13 | CCOc1cc(N2CCC(O)CC2)ccc1Nc1ncc2c(n1)N(C)c1ccccc1C(=O)N2C [XMD8-92, reference compound] |  |  |  |  |  | 219 | 18 | 16200 | 161 | 14
